Our source for the TGI values is PubChem BioAssay (NCI).

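Dose response: 5 concentrations. Exposure: 48 h. Format: 96-well plates. Endpoint: linear interpolation; highest concentration if not reached. TGI: concentration producing complete growth inhibition.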

Some test systems named below: A549 NSCLC; MDA-MB-435; MCF7 breast; U251 CNS; COLO 205 colon; K-562 leukemia; A498 renal; OVCAR-3 ovarian; SW-620 colon; BT-549 breast.
Common to all, as to experiment: DTP human tumour cell line panel, 48 h

A word on the TGI: it is the concentration at which net growth stops. Higher therefore signals lower sensitivity of the cells. In the case of `COC(=O)C1=C(C)N2[C@H](C(=O)O)CO[C@@]2(C)[C@H](C(=O)OC)[C@H]1c1cccc([N+](=O)[O-])c1`, the TGI with A549 NSCLC, in the assay on MDA-MB-435, in the assay on MCF7 breast, in the assay on U251 CNS, with COLO 205 colon and in the assay with K-562 leukemia was greater than 100 µM each time. Besides, the TGI in the assay with A498 renal, in the assay on OVCAR-3 ovarian, with SW-620 colon and in the assay on BT-549 breast was greater than 100 µM each time.

Turning to `COc1ccc(CSc2ccccc2Cn2cccc2)cc1OC`, the TGI with A549 NSCLC, with MDA-MB-435, in the assay on MCF7 breast, in the assay with U251 CNS, in the assay on COLO 205 colon and with K-562 leukemia was greater than 100 µM each time. For the same compound, the TGI with A498 renal, with OVCAR-3 ovarian, in the assay on SW-620 colon and with BT-549 breast was greater than 100 µM in each case.

With `O=C(Nc1cccc(F)c1)c1cc2ccc(O)cc2oc1=Nc1ccccc1F`, the TGI in the assay with A549 NSCLC was 13.8 µM; with MDA-MB-435, 14.2 µM; in the assay on MCF7 breast, 25.7 µM; with U251 CNS it was 13.4 µM; in the assay with COLO 205 colon, 41.7 µM; in the assay with K-562 leukemia, greater than 100 µM. Besides, the TGI was 35.6 µM in the assay with A498 renal, 14.7 µM with OVCAR-3 ovarian, 45.4 µM in the assay on SW-620 colon and 8.61 µM in the assay with BT-549 breast.

For the compound `Cc1n[nH]c(=O)n1/N=C/c1ccc([N+](=O)[O-])o1`, the TGI in the assay with A549 NSCLC was 35.7 µM; with MDA-MB-435, 18.6 µM; in the assay with MCF7 breast, greater than 100 µM; in the assay on U251 CNS it was greater than 53.7 µM; in the assay on COLO 205 colon, 20.8 µM; with K-562 leukemia, greater than 100 µM. For the same compound, the TGI in the assay on A498 renal worked out at 47.6 µM; in the assay with OVCAR-3 ovarian it was 17.8 µM; in the assay with SW-620 colon, 37.8 µM; in the assay on BT-549 breast, 36.6 µM.

As to `Nc1nc(Cl)c(N)c(NCC2(CO)CC(CCCc3ccccc3)C2)n1` (configuration not stated), the TGI is greater than 100 µM in the assay with A549 NSCLC; greater than 100 µM in the assay with MDA-MB-435; greater than 85.7 µM in the assay with MCF7 breast; greater than 100 µM in the assay with U251 CNS; 45.6 µM in the assay on COLO 205 colon; greater than 100 µM in the assay on K-562 leukemia. In addition, the TGI in the assay on A498 renal is 66.1 µM; with OVCAR-3 ovarian, greater than 67.2 µM; in the assay on SW-620 colon, greater than 100 µM; in the assay with BT-549 breast, greater than 81.8 µM.

Take `CCOc1ccc(-n2nnc3c(N)nc(N)nc32)cc1`: the TGI in the assay on A549 NSCLC, in the assay on MDA-MB-435, in the assay with MCF7 breast, in the assay with U251 CNS, with COLO 205 colon and with K-562 leukemia was greater than 100 µM each time. The TGI in the assay on A498 renal, in the assay on OVCAR-3 ovarian, in the assay with SW-620 colon and in the assay on BT-549 breast was greater than 100 µM in each case.

Regarding `c1ccc(CSCCc2ccncc2)cc1`, the TGI in the assay on A549 NSCLC, in the assay on MDA-MB-435, with MCF7 breast, with U251 CNS, in the assay with COLO 205 colon and in the assay with K-562 leukemia was greater than 100 µM in each case. For the same compound, the TGI in the assay on A498 renal, in the assay with OVCAR-3 ovarian, in the assay on SW-620 colon and in the assay with BT-549 breast was greater than 100 µM in each case.

As for `Brc1ccc(-c2cn3ccncc3n2)cc1`, the TGI in the assay on A549 NSCLC, in the assay with MDA-MB-435, in the assay on MCF7 breast, in the assay with U251 CNS, in the assay with COLO 205 colon and with K-562 leukemia was greater than 100 µM each time. Further, the TGI with A498 renal, in the assay on OVCAR-3 ovarian and with BT-549 breast was greater than 100 µM each time.

As to `Cc1ccc2nc(NC(=O)/C(Cc3nc4ccc(Cl)cc4[nH]c3=O)=N\NC(C)(C)C)sc2c1`, the TGI with A549 NSCLC, with MDA-MB-435, with MCF7 breast, in the assay on U251 CNS, in the assay on COLO 205 colon and in the assay with K-562 leukemia was greater than 100 µM each time. Moreover, the TGI in the assay on A498 renal, in the assay on OVCAR-3 ovarian, in the assay on SW-620 colon and in the assay with BT-549 breast was greater than 100 µM each time.

As to `COc1nc(N)c(N=CC(OC(C)=O)C(OC(C)=O)C(COC(C)=O)OC(C)=O)c(=O)n1C` (configuration not stated), the TGI with A549 NSCLC, with MDA-MB-435, in the assay with MCF7 breast, in the assay with U251 CNS, with COLO 205 colon and in the assay on K-562 leukemia was greater than 100 µM in each case. In addition, the TGI in the assay with A498 renal, with OVCAR-3 ovarian, with SW-620 colon and in the assay with BT-549 breast was greater than 100 µM in each case.

As for `O=C(/C=C/c1csc(-c2ccccc2)n1)NCc1ccc(C(=O)NCc2ccccc2)cc1`, the total growth inhibition concentration (TGI) with A549 NSCLC, in the assay with MDA-MB-435, in the assay with MCF7 breast, in the assay on U251 CNS, with COLO 205 colon and in the assay on K-562 leukemia was greater than 100 µM each time. Moreover, the TGI in the assay on A498 renal, in the assay with OVCAR-3 ovarian, in the assay with SW-620 colon and in the assay with BT-549 breast was greater than 100 µM throughout.

Take `Nc1ccc(CCN2CCN(CCCc3ccccc3)CC2)cc1`: the TGI in the assay with A549 NSCLC, in the assay with MDA-MB-435, with MCF7 breast, in the assay with U251 CNS, in the assay on COLO 205 colon and in the assay with K-562 leukemia was greater than 100 µM each time. The concentration for total growth inhibition (TGI) in the assay on A498 renal, in the assay on OVCAR-3 ovarian, in the assay on SW-620 colon and in the assay on BT-549 breast was greater than 100 µM in each case.

As for `COc1ccc(C(=O)c2[nH]c(Nc3ccc(Cl)cc3)c(C(=S)Nc3ccccc3)c2N)cc1`, the TGI in the assay with A549 NSCLC, in the assay with MDA-MB-435, in the assay with MCF7 breast, in the assay with COLO 205 colon, with K-562 leukemia and with A498 renal was greater than 100 µM in each case. The TGI in the assay with OVCAR-3 ovarian, with SW-620 colon and in the assay on BT-549 breast was greater than 100 µM throughout.

Consider `CC1(O)OC(=O)C2=C1CCC1C2CCC2(C)C(O)CCC12` (configuration not stated), for which the TGI in the assay on A549 NSCLC, with MDA-MB-435, in the assay with MCF7 breast, in the assay on U251 CNS, in the assay with K-562 leukemia and in the assay with A498 renal was greater than 100 µM each time. The TGI in the assay with OVCAR-3 ovarian, in the assay on SW-620 colon and in the assay on BT-549 breast was greater than 100 µM each time.
